Laboratory results: article PMC4125160, “Neurotoxicity and Mode of Action of N, N-Diethyl-Meta-Toluamide (DEET)” (PLoS ONE, 2014)
Values after ≈ are worked out from the molar mass of the structure shown.

What was measured:
rats = system: rats; parameters: method as in ref 24 = [24]; 24 Macko J , Weeks M ( 1980 ) Phase 6: Acute toxicity evaluation of N,N-diethyl-meta-toluamide (M-Det.) . U.S. Army Environmental Hygiene Agency Study No.71-51-0034-81.; conditions: oral administration to rats ref 24; cited from earlier work
acetylcholinesterase = assay: AChE inhibition, Ellman assay, summary statements across enzymes; type: biochemical; conditions: abstract
From the text: In vitro biochemical assays utilized five acetylcholinesterase (AChE) enzymes. Recombinant human AChE (hAChE) was purchased from a commercial source (lyophilized powder, Sigma C1682, St. Louis, MO, USA). Homogenates to prepare Anopheles gambiae AChE (AgAChE) were obtained from the wild type G3 strain and the resistant AKRON strain (BEI Resources; http://www.beiresources.org/). AKRON mosquitoes (from Benin and donated by M. Akogbeto) have both knockdown resistance (kdr) to pyrethroids (L1014F sodium channel mutation) and the G119S AChE mutation (ace-1R), which confers resistance to carbamates, [15]. Both strains were cultured in the Emerging Pathogens Institute, University of Florida, Gainesville, FL, USA from eggs provided by the Center for Disease Control, Atlanta, GA, USA. Homogenates were also used to prepare Aedes aegypti AChE (AeAChE) from mosquitoes provided by the CMAVE, USDA-ARS, Gainesville, FL, USA; Musca domestica AChE (MdAChE) from flies cultured in the Department of Entomology and Nematology, Medical Entomology Laboratory, University of Florida, Gainesville, FL, USA); and Drosophila melanogaster AChE (DmAChE) from flies (Oregon-R strain) cultured in the Emerging Pathogens Institute, University of Florida, Gainesville, FL, USA. Homogenate enzymes were prepared from groups of ten non-blood fed adult female mosquitoes, five whole bodied Drosophila, or three Musca heads homogenized in 1 mL of ice-cold sodium phosphate buffer (0.1 M sodium phosphate, pH 7.8) with an electric motor driven glass tissue homogenizer. The homogenate was centrifuged at 5000×g using a Sorvall Fresco refrigerated centrifuge at 4 °C for 5 minutes. […]
Inhibition of AChE was determined using the Ellman assay and was based on the method outlined in Carlier et al.. […] Changes in absorbance were recorded by a DYNEX Triad spectrophotometer (DYNEX Technologies, Chantilly, VA, USA) at 405 nm. Enzyme concentrations used were within the linear range, therefore eliminating the need for protein quantification.

mosquitoes = assay: Toxicity to mosquitoes (abstract summary); type: in vivo
Description: Topical toxicity bioassays on adult female mosquitoes were performed based on the method of Pridgeon et al.. Briefly, insects were chilled on ice for 3 min, during which the appropriate volume (200 nL for mosquitoes, 1 µL for Musca) of chemical (dissolved in 95% ethanol) was applied onto the abdomen using a handheld Hamilton microapplicator. For each inhibitor, five doses were applied to groups of ten insects each and repeated three times. An ethanol-only treatment was included in each experiment as a negative control. Insects were transferred into a holding chamber post-treatment and supplied with free access to sugar water for the duration of the experiment. […] Three LD50 values were obtained and the mean LD50 value was calculated and used for statistical analysis.

Drosophila melanogaster = assay: Diet (sugar-feeding) toxicity assay; type: in vivo; conditions: 1 mg/ml, mortality at 24 h
Description: Diet toxicity assays were performed on mixed sex adult Drosophila melanogaster fasted for 8 hours prior to initiating the experiment. Flies were transferred into a container stoppered with a cotton ball infused with 1 ml of a sucrose/DEET solution containing 20 insects (2–3 day old adults). The assay was run three times on three different days with matched controls. Mortality was recorded at the 24-hour time point.
For all toxicity assays, control mortality was corrected for using Abbots formula [19]; where corrected percent mortality = (% alive in control–% alive in treated) /% alive in control.

Ae. aegypti = assay: WHO filter paper contact toxicity bioassay; type: in vivo; conditions: Aedes aegypti; WHO filter paper assay, 1 h exposure, mortality at 24 h; read-out: LC50 (95% CI)
[1] = system: potassium channels (Kv2 delayed rectifier) in neonatal rat cortical neurons; assay: Patch clamp of rat cortical neurons, potassium currents; type: cell-based
Description: Rat cortical neurons (purchased from Lonza, Walkersville, MD, USA) were placed on poly-lysine coated glass cover slips in 35 mm dishes, and cultured in primary neuron basal medium with added 2% neural grown factor and 1% glutamine (from Lonza). The medium was half changed every 3 days, and the cells were used at 6–12 days. The neurons had dendrites and axons and the diameters of the somata were about 15–20 µm. Cells were cultured on cover slips and were immersed in 35 mm Petri dishes filled with room temperature extracellular saline. Patch pipettes were pulled from borosilicate glass capillaries with filament (BF150-86-10, Sutter Instrument, Novato CA, USA) on a P-1000 Flaming/Brown micropipette puller (Sutter Instrument). Extracellular solution was the same regardless of the target ion channel and contained: 140 mM NaCl, 5 mM KCl, 2 mM MgCl2, 2 mM CaCl2, 10 mM glucose, and 10 mM HEPES (pH = 7.4). Intracellular patch solution for potassium channel recordings consisted of: 140 mM KF, 10 mM NaCl, 2 mM MgCl2, and 10 mM HEPES (pH = 7.2). Intracellular patch solution for sodium channel recordings consisted of: 140 mM CsCH3SO3 10 mM NaCl, 2 mM MgCl2, 10 mM HEPES (pH = 7.2), where CsCH3SO3 was used to eliminate potassium currents during sodium channel analysis. The patch electrodes had resistances of 5–7 MOhms. […]

In the case of `CCN(CC)C(=O)c1cccc(C)c1` [DEET, N, N-diethyl-meta-toluamide], the LD50 (rats) is listed as “ca. 3000 mg/kg”, the acetylcholinesterase inhibition (acetylcholinesterase; 10 mM) is listed as under 10% and the IC50 (acetylcholinesterase; Drosophila melanogaster, Musca domestica, and human acetylcholinesterases) is listed as 6 to 12 mM. The LD50 (mosquitoes) was “ca. 1.5 µg/mg”, the “toxicity in sugar-feeding assay” value (Drosophila melanogaster) was “non-toxic” and the LC50 (Ae. aegypti) was 2300 µg/mL (≈ 12 mM). For the same compound, the “control current amplitude restored by washout” value [1] was “approximately 50%”.
